Assay results reported in US8211861B2, “Compositions for and methods of enhancing the immune response to antigens” (Wittycell, priority 2007, dated 2012).

B1: ovalbumin (protein, UniProt P01012 2-386, looked up)
Ovalbumin: GSIGAASMEFCFDVFKELKVHHANENIFYCPIAIMSALAMVYLGAKDSTRTQINKVVRFDKLPGFGDSIEAQCGTSVNVHSSLRDILNQITKPNDVYSFSLASRLYAEERYPILPEYLQCVKELYRGGLEPINFQTAADQARELINSWVESQTNGIIRNVLQPSSVDSQTAMVLVNAIVFKGLWEKAFKDEDTQAMPFRVTEQESKPVQMMYQIGLFRVASMASEKMKILELPFASGTMSMLVLLPDEVSGLEQLESIINFEKLTEWTSSNVMEERKIKVYLPRMKMEEKYNLTSVLMAMGITDVFSSSANLSGISSAESLKISQAVHAAHAEINEAGREVVGSAEAGVDAASVSEEFRADHPFLFCIKHIATNAVLFFGRCVSP
notes: nominal antigen, Ovalbumin grade VII, Sigma

Columns and labels:
[1] = system: Ova-specific target cells; assay: in vivo specific cytotoxic T cell (CD8+) response, specific lysis of Ova-specific target cells; design: species or system mouse; details: for specific lysis of Ova-specific target cells in blood: Example 1, FIG. 1, 1 μg adjuvant with 50 μg Ova, day 0, target cells day 10, read day 11; for specific lysis of Ova-specific target cells in blood / average Ova-specific cytotoxic response (percent specific lysis): IV; for average Ova-specific cytotoxic response (percent specific lysis): Example 2, FIG. 2; for average Ova-specific cytotoxic response (percent specific lysis) / average OVA-specific cytotoxic response (percent specific lysis): 400 μg Ova with or without 1 μg adjuvant; for average Ova-specific cytotoxic response (percent specific lysis) / average OVA-specific cytotoxic response (percent specific lysis) / percentage of specific lysis of the target cells by CD8+ T cells: blood day 11; for average OVA-specific cytotoxic response (percent specific lysis): Example 2, FIG. 3; for average OVA-specific cytotoxic response (percent specific lysis) / enhancement of the CD8+ T cell response at low doses (specific lysis) / percentage of specific lysis of the target cells by CD8+ T cells: IM; for enhancement of the CD8+ T cell response at low doses (specific lysis): Example 5, FIGS. 7 and 8, 50 μg OVA with 100 ng or 10 ng adjuvant; for percentage of specific lysis of the target cells by CD8+ T cells: Example 5 Experiment B, FIG. 8, 50 μg OVA with 10 ng adjuvant
OVA-specific IgG2a = OVA-specific IgG2a ELISA after intramuscular immunization; type: in vivo, mouse; details: FIG. 12; IM, 50 μg OVA with 100 ng adjuvant, 14 days post-injection
Procedure: Mice (6 per group) were injected intramuscularly with 50 μg of OVA either alone or in combination with 100 ng of the indicated adjuvants (Freund's adjuvant was used as a positive control) as follows: • Group 1: […] of Ova with CFA/IFA (Positive control) • Group 2: 50 μg of Ova • Group 3: 50 μg of Ova and 100 ng of αGalCer • Group 4: 50 μg of Ova and 100 ng of PBS-11 • Group 5: 50 μg of Ova and 100 ng of PBS-14 • Group 6: 50 μg of Ova and 100 ng of PBS-57 • Group 7: 50 μg of Ova and 100 ng of PBS-96 At 14 days post-injection, blood samples were collected and ELISAs for IgG1 and IgG2a were performed using mouse monoclonal antibodies specific for OVA isotype IgG1 or IgG2a. The results are shown as the titer of the antibody in peripheral blood in ng/ml. The results for IgG1 are depicted in FIG. 11 and those for IgG2a are depicted in FIG. 12.

[2] = system: CD8+ T cells responsive to OVA; assay: SIINFEKL pentamer assay, percentage of OVA-specific CD8+ T cells; type: in vivo, mouse; details: IM, days 0 and 14, blood day 21
Procedure: To verify the results obtained using the in vivo cytotoxicity assay described in the Examples above, similar experiments were performed and CD8+ T cell activation was determined by measuring the percentage of OVA-specific CD8+ T cells using a pentamer assay. Briefly, mice were injected intramuscularly with the indicated amounts of OVA and test adjuvant compound at either 1 μg or 100 ng per mouse, respectively on day 0 as follows:
Experiment A: • Group 1: 100 μl of PBS; • Group 2: 50 μg of Ova into 100 μl PBS; • Group 3: 50 μg of Ova with 1 μg αGalCer; • Group 4: 50 μg of Ova with 1 μg PBS-11 • Group 5: 50 μg of Ova with 1 μg PBS-14 • Group 6: 50 μg of Ova with […] PBS-57 • Group 7: 50 μg of Ova with 1 μg PBS-96
Experiment B: • Group 1: 100 μl of PBS; • Group 2: 50 μg of Ova into 100 μl PBS; • Group 3: 50 μg of Ova with 100 ng αGalCer; • Group 4: 50 μg of Ova with 100 ng PBS-11 • Group 5: 50 μg of Ova with 100 ng PBS-14 • Group 6: 50 μg of Ova with 100 ng PBS-57 • Group 7: […] of Ova with 100 ng PBS-96 A second injection was administered to the mice on day 14 and blood was collected from the mice on day 21. The lymphocytes were collected and analyzed by FACS analysis using H-2K^b SIINFEKL pentamer and CD8 antibody to detect CD8+ T cells responsive to OVA.

[3] = Example 6 Experiment A, FIG. 9, 50 μg Ova with 1 μg adjuvant
[4] = Example 6 Experiment B, FIG. 10, 50 μg Ova with 100 ng adjuvant

Row | Molecule | specific lysis of Ova-specific target cells in blood [1] | average Ova-specific cytotoxic response (percent specific lysis) [1] [%] | average OVA-specific cytotoxic response (percent specific lysis) [1] [%] | enhancement of the CD8+ T cell response at low doses (specific lysis) [1] | OVA specific IgG2a titer in peripheral blood (OVA-specific IgG2a) | percentage of OVA specific CD8+ T cells (SIINFEKL pentamer) [2, 3] | percentage of OVA specific CD8+ T cells (SIINFEKL pentamer) [2, 4] | percentage of specific lysis of the target cells by CD8+ T cells [1]
1 | CCCCCCCCCCCCCCCCCCCCCCCCCC(=O)N[C@@H](CO[C@H]1O[C@H](CNC(C)=O)[C@H](O)[C@H](O)[C@H]1O)[C@H](O)[C@H](O)CCCCCCCCCCCCCC [PBS-14] | resulted in cytotoxic lysis of Ova-specific target cells | 83.3±6.1 | 52.07±29.56 | unexpectedly better than other adjuvants | enhanced the OVA specific IgG2a titer about as well as Freund's adjuvant and much better than PBS-57 | enhanced the percentage of OVA specific CD8+ T cells | surprisingly much better at enhancing the CD8+ T cell response | –
2 | CCCCCCCCCCCCCCCCCCCCCCCC(=O)N[C@@H](CO[C@H]1O[C@H](CNC(C)=O)[C@H](O)[C@H](O)[C@H]1O)[C@H](O)[C@H](O)CCCCCCCCCCCCCC [PBS-96] | resulted in cytotoxic lysis of Ova-specific target cells | 89.2±10.3 | 50.29±42.6 | unexpectedly better than other adjuvants | enhanced the OVA specific IgG2a titer about as well as Freund's adjuvant and much better than PBS-57 | enhanced the percentage of OVA specific CD8+ T cells | surprisingly much better at enhancing the CD8+ T cell response | –
3 | CCCCCCCCCCCCCCCCCCCCCCCCCC(=O)N[C@@H](CO[C@H]1O[C@H](CO)[C@H](O)[C@H](O)[C@H]1O)[C@H](O)[C@H](O)CCCCCCCCCCCCCC [αGalCer, α-galactosyceramide, reference compound] | – | – | – | – | – | not as effective | – | indistinguishable from the controls
4 | CCCCCCCCCCCCCCCCCCCCCCCCCC(=O)N[C@@H](CO[C@H]1O[C@H](CNC(=O)CCCC[C@@H]2SC[C@@H]3NC(=O)N[C@@H]32)[C@H](O)[C@H](O)[C@H]1O)[C@H](O)[C@H](O)CCCCCCCCCCCCCC [PBS-11, reference compound] | did not result in specific lysis of cells | – | – | – | – | not as effective | – | indistinguishable from the controls
5 | CCCCCCCC/C=C\CCCCCCCCCCCCCC(=O)N[C@@H](CO[C@H]1O[C@H](CNC(C)=O)[C@H](O)[C@H](O)[C@H]1O)[C@H](O)[C@H](O)CCCCCCCCCCCCCC [PBS-57, reference compound] | – | 88.1±6.2 | 56.11±13.34 | – | – | enhanced the percentage of OVA specific CD8+ T cells | – | indistinguishable from the controls
6 | B1 | – | 11.8±14.4 | 1.60±14.33 | – | – | – | – | –
